Molecules are shown by their SMILES.

Test [1] deals with A2AR single and double Cys-to-Ala variants. As to the kind of experiment: Fluorescent-ligand binding to the A2AR variants. Also on record: species or system human. The following applies: HEK-293 cells, untagged A2AR constructs, 70 nM FITC-APEC, 1 h at 37 °C.
Test [2] deals with A2a–adenosine receptors. The following applies: high affinity fluorescent agonist; cited from earlier work.

Turning to `CCNC(=O)[C@H]1O[C@@H](n2cnc3c(N)nc(NCCc4ccc(CCC(=O)NCCNC(=S)Nc5ccc6c(c5)C(=O)OC6(c5ccc(O)cc5)c5ccc(O)cc5)cc4)nc32)[C@H](O)[C@@H]1O` [FITC-APEC, 2-[2-[4-[2-[2-[1,3-Dihydro-1,1-bis (4-hydroxyphenyl)-3-oxo-5-isobenzofuranthioureidyl]ethylaminocarbonyl]ethyl]phenyl]ethylamino]-5N′-ethylcarboxamidoadenosine], in test [1], the “fluorescent ligand binding at the cell surface” value was “capable of binding”. Further, the Kd – broadly, a measure of binding affinity in units of concentration – in test [2] was 57 nM.
